{"source": "the supplement of paper PMC10307832", "test_in_all_cases": "relative viability (nuclei count vs DMSO), 5 days (fraction); higher = more cells survive", "key": {"Everolimus": {"compound": "CO[C@H]1C[C@@H]2CC[C@@H](C)[C@@](O)(O2)C(=O)C(=O)N2CCCC[C@H]2C(=O)O[C@H]([C@H](C)C[C@@H]2CC[C@@H](OCCO)[C@H](OC)C2)CC(=O)[C@H](C)/C=C(\\C)[C@@H](O)[C@@H](OC)C(=O)[C@H](C)C[C@H](C)/C=C/C=C/C=C/1C [Everolimus]", "in_short": "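Five library-drug doses spaced by √10 were pinned onto vehicle-anchored 1536-well plates of lung cancer cell lines that had been kept overnight at 37 °C. Cells went 5 days without medium change, then were fixed, permeabilised and Hoechst-stained together, imaged at 4× and counted by MetaXpress. Viability is the ratio of treated-well to vehicle-well nuclei, taken as a median over plates. Plates required control CV below 25% and at least one doubling.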"}, "Everolimus + Luminespib": {"compound": "CO[C@H]1C[C@@H]2CC[C@@H](C)[C@@](O)(O2)C(=O)C(=O)N2CCCC[C@H]2C(=O)O[C@H]([C@H](C)C[C@@H]2CC[C@@H](OCCO)[C@H](OC)C2)CC(=O)[C@H](C)/C=C(\\C)[C@@H](O)[C@@H](OC)C(=O)[C@H](C)C[C@H](C)/C=C/C=C/C=C/1C [Everolimus] + CCNC(=O)c1noc(-c2cc(C(C)C)c(O)cc2O)c1-c1ccc(CN2CCOCC2)cc1 [Luminespib] (partner 0.01 µM)", "in_short": "(§1)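 Five library-drug doses in √10 steps were combined with a fixed anchor-drug dose, or a single drug was given alone, by pin tool to lung cancer cell lines in 1536-well plates the day after seeding. Nuclei were stained and counted after 5 days. Relative viability is the nuclei count in treated wells over that in vehicle wells, taken as the median of duplicate plates.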"}, "Everolimus + Foretinib": {"compound": "CO[C@H]1C[C@@H]2CC[C@@H](C)[C@@](O)(O2)C(=O)C(=O)N2CCCC[C@H]2C(=O)O[C@H]([C@H](C)C[C@@H]2CC[C@@H](OCCO)[C@H](OC)C2)CC(=O)[C@H](C)/C=C(\\C)[C@@H](O)[C@@H](OC)C(=O)[C@H](C)C[C@H](C)/C=C/C=C/C=C/1C [Everolimus] + COc1cc2c(Oc3ccc(NC(=O)C4(C(=O)Nc5ccc(F)cc5)CC4)cc3F)ccnc2cc1OCCCN1CCOCC1 [Foretinib] (partner 0.25 µM)", "in_short": "as §1"}, "Everolimus + OSI-027": {"compound": "CO[C@H]1C[C@@H]2CC[C@@H](C)[C@@](O)(O2)C(=O)C(=O)N2CCCC[C@H]2C(=O)O[C@H]([C@H](C)C[C@@H]2CC[C@@H](OCCO)[C@H](OC)C2)CC(=O)[C@H](C)/C=C(\\C)[C@@H](O)[C@@H](OC)C(=O)[C@H](C)C[C@H](C)/C=C/C=C/C=C/1C [Everolimus] + COc1cccc2cc(-c3nc([C@H]4CC[C@H](C(=O)O)CC4)n4ncnc(N)c34)[nH]c12 [OSI-027] (partner 0.5 µM)", "in_short": "as §1"}, "Everolimus + Tozasertib": {"compound": "CO[C@H]1C[C@@H]2CC[C@@H](C)[C@@](O)(O2)C(=O)C(=O)N2CCCC[C@H]2C(=O)O[C@H]([C@H](C)C[C@@H]2CC[C@@H](OCCO)[C@H](OC)C2)CC(=O)[C@H](C)/C=C(\\C)[C@@H](O)[C@@H](OC)C(=O)[C@H](C)C[C@H](C)/C=C/C=C/C=C/1C [Everolimus] + Cc1cc(Nc2cc(N3CCN(C)CC3)nc(Sc3ccc(NC(=O)C4CC4)cc3)n2)n[nH]1 [Tozasertib] (partner 0.1 µM)", "in_short": "as §1"}, "Everolimus + Dasatinib": {"compound": "CO[C@H]1C[C@@H]2CC[C@@H](C)[C@@](O)(O2)C(=O)C(=O)N2CCCC[C@H]2C(=O)O[C@H]([C@H](C)C[C@@H]2CC[C@@H](OCCO)[C@H](OC)C2)CC(=O)[C@H](C)/C=C(\\C)[C@@H](O)[C@@H](OC)C(=O)[C@H](C)C[C@H](C)/C=C/C=C/C=C/1C [Everolimus] + Cc1nc(Nc2ncc(C(=O)Nc3c(C)cccc3Cl)s2)cc(N2CCN(CCO)CC2)n1 [Dasatinib] (partner 0.075 µM)", "in_short": "as §1"}, "Everolimus + Phenformin": {"compound": "CO[C@H]1C[C@@H]2CC[C@@H](C)[C@@](O)(O2)C(=O)C(=O)N2CCCC[C@H]2C(=O)O[C@H]([C@H](C)C[C@@H]2CC[C@@H](OCCO)[C@H](OC)C2)CC(=O)[C@H](C)/C=C(\\C)[C@@H](O)[C@@H](OC)C(=O)[C@H](C)C[C@H](C)/C=C/C=C/C=C/1C [Everolimus] + N=C(N)NC(=N)NCCc1ccccc1 [Phenformin] (partner 250 µM)", "in_short": "as §1"}}}
{"cell line": "NCI-H1623", "values": [{"measurement": "relative viability", "setting": "Everolimus; 0.01 µM", "result": 0.773}, {"measurement": "relative viability", "setting": "Everolimus; 0.03162 µM", "result": 0.622}, {"measurement": "relative viability", "setting": "Everolimus; 0.1 µM", "result": 0.595}, {"measurement": "relative viability", "setting": "Everolimus; 0.3162 µM", "result": 0.581}, {"measurement": "relative viability", "setting": "Everolimus; 1 µM", "result": 0.514}, {"measurement": "relative viability", "setting": "Everolimus + Luminespib; first compound 0.01 µM", "result": 0.467}, {"measurement": "relative viability", "setting": "Everolimus + Luminespib; first compound 0.03162 µM", "result": 0.336}, {"measurement": "relative viability", "setting": "Everolimus + Luminespib; first compound 0.1 µM", "result": 0.307}, {"measurement": "relative viability", "setting": "Everolimus + Luminespib; first compound 0.3162 µM", "result": 0.326}, {"measurement": "relative viability", "setting": "Everolimus + Luminespib; first compound 1 µM", "result": 0.296}, {"measurement": "relative viability", "setting": "Everolimus + Foretinib; first compound 0.01 µM", "result": 0.721}, {"measurement": "relative viability", "setting": "Everolimus + Foretinib; first compound 0.03162 µM", "result": 0.831}, {"measurement": "relative viability", "setting": "Everolimus + Foretinib; first compound 0.1 µM", "result": 0.53}, {"measurement": "relative viability", "setting": "Everolimus + Foretinib; first compound 0.3162 µM", "result": 0.511}, {"measurement": "relative viability", "setting": "Everolimus + Foretinib; first compound 1 µM", "result": 0.563}, {"measurement": "relative viability", "setting": "Everolimus + OSI-027; first compound 0.01 µM", "result": 0.408}, {"measurement": "relative viability", "setting": "Everolimus + OSI-027; first compound 0.03162 µM", "result": 0.395}, {"measurement": "relative viability", "setting": "Everolimus + OSI-027; first compound 0.1 µM", "result": 0.362}, {"measurement": "relative viability", "setting": "Everolimus + OSI-027; first compound 0.3162 µM", "result": 0.384}, {"measurement": "relative viability", "setting": "Everolimus + OSI-027; first compound 1 µM", "result": 0.372}, {"measurement": "relative viability", "setting": "Everolimus + Tozasertib; first compound 0.01 µM", "result": 0.411}, {"measurement": "relative viability", "setting": "Everolimus + Tozasertib; first compound 0.03162 µM", "result": 0.396}, {"measurement": "relative viability", "setting": "Everolimus + Tozasertib; first compound 0.1 µM", "result": 0.39}, {"measurement": "relative viability", "setting": "Everolimus + Tozasertib; first compound 0.3162 µM", "result": 0.381}, {"measurement": "relative viability", "setting": "Everolimus + Tozasertib; first compound 1 µM", "result": 0.385}, {"measurement": "relative viability", "setting": "Everolimus + Dasatinib; first compound 0.01 µM", "result": 0.388}, {"measurement": "relative viability", "setting": "Everolimus + Dasatinib; first compound 0.03162 µM", "result": 0.566}, {"measurement": "relative viability", "setting": "Everolimus + Dasatinib; first compound 0.1 µM", "result": 0.317}, {"measurement": "relative viability", "setting": "Everolimus + Dasatinib; first compound 0.3162 µM", "result": 0.352}, {"measurement": "relative viability", "setting": "Everolimus + Dasatinib; first compound 1 µM", "result": 0.382}, {"measurement": "relative viability", "setting": "Everolimus + Phenformin; first compound 0.01 µM", "result": 0.466}, {"measurement": "relative viability", "setting": "Everolimus + Phenformin; first compound 0.03162 µM", "result": 0.622}, {"measurement": "relative viability", "setting": "Everolimus + Phenformin; first compound 0.1 µM", "result": 0.444}, {"measurement": "relative viability", "setting": "Everolimus + Phenformin; first compound 0.3162 µM", "result": 0.444}, {"measurement": "relative viability", "setting": "Everolimus + Phenformin; first compound 1 µM", "result": 0.512}]}
